Literature values in US20090252757A1, “METHODS AND COMPOSITIONS FOR INHIBITING HIV INFECTION” (IRM LLC, priority 2005, published 2009).

Target: MLK3 (Homo sapiens, UniProt Q16584)
Settings: Roux et al., J. Biol. Chem. 277:49473-80, 2002

MLK3, sequence (Q16584 whole entry): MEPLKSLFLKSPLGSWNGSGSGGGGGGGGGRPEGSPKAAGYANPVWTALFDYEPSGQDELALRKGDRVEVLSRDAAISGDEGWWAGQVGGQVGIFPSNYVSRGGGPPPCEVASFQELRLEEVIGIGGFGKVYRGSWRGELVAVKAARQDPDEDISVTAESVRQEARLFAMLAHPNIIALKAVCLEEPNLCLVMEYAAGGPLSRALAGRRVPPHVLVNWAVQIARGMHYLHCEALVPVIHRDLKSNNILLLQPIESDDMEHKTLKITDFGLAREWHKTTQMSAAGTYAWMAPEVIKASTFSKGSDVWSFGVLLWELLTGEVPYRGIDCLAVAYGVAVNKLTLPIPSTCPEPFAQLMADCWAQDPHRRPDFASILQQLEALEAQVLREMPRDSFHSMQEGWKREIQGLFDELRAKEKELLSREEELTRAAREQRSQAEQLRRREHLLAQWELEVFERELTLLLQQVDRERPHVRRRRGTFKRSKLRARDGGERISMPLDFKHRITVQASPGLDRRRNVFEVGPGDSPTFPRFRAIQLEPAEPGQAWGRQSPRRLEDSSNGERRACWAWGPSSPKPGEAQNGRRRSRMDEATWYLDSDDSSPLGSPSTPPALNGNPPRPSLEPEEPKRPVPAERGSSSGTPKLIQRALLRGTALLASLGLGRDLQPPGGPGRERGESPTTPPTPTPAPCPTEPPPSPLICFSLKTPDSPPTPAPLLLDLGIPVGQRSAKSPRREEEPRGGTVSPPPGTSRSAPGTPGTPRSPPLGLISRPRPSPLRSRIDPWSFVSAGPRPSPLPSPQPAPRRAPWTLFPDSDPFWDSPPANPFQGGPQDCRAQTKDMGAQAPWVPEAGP

For `CCSCc1ccc2c(c1)c1c3c(c4c5cc(CSCC)ccc5n5c4c1n2[C@H]1C[C@](O)(C(=O)OC)[C@]5(C)O1)CNC3=O` [CEP1347], which “inhibition of MLK3 kinase activity” value is on record?
Its value is “inhibit the kinase activity of MLK3”.
